Laboratory results taken from paper PMC8779995, “Metabolic Soft Spot and Pharmacokinetics: Functionalization of C-3 Position of an Eph–Ephrin Antagonist Featuring a Bile Acid Core as an Effective Strategy to Obtain Oral Bioavailability in Mice” (Pharmaceuticals, 2021).
Values after ≈ are worked out from the molar mass of the structure shown. Values joined by “and” are separate entries in the source; they are usually repeats but may differ in a detail not shown here. Equal entries are not always repeated. Where two headings read alike, the source gives them in different places.

Tests used:
[1] = parameters: method as in PMID 31891876, PMID 32927068; conditions: reference substrates; cited from earlier work
[2] = Lipophilicity, distribution coefficient n-octanol/buffer pH 7.4; format: physicochemical
[3] = Phase II sulfonation stability in mouse liver S9 fraction (+PAPS); format: in vitro ADME; conditions: mouse liver S9, 1 μM
Protocol: (§1) Phase II sulfonation assays were carried out in the presence of HLS9 or MLS9 fractions, as previously reported. The co-factor PAPS was incubated together with MgCl2, DTT, and UniPR compounds. The detailed experimental protocols for in vitro phase I and II metabolic stability assays are reported in Sections S.1–S.3 of the Supplementary Material. […] A 100 µL aliquot of the reaction mixture was extracted at the beginning of the experiment (t = 0) and at t = 180 min and processed as for the metabolic stability samples.
(§2) S.1 In vitro phase I liver metabolism in MLM
(§3) In phase I metabolic stability assays, samples were prepared in 100 mM phosphate buffered saline (PBS), pH 7.4, containing a NADPH-generating system (5 mM MgCl2, 10 mM glucose-6-phosphate, 2 mM NADP+, 1.5 U/mL of glucose-6-phosphate dehydrogenase) and 1 mg/mL mouse liver […]
solutions in DMSO were added to start the reaction. Final DMSO percentage in samples was kept at 1%. […]
(§4) Within-run accuracy and precision were checked employing QC samples representative of the whole calibration range (HQC = 800 nmol/l; MQC = 400 nmol/l; LQC = 5 nmol/l) with n = 3 replicates at each QC concentration level. […] The acceptance criteria for accuracy were to get back-calculated concentrations ± 15% of the nominal ones, except for the LLOQ, which had to be ± 20%. The acceptance criteria for precision, expressed as relative standard

[4] = Phase II glucuronidation stability in MLM (+UDPGA); format: in vitro ADME, mouse; conditions: 1 μM
Protocol: Phase I metabolic stability assays on UniPR compounds were carried out in the presence of MLM (final protein concentration: 1 mg/mL) following published procedures. MLM were also employed in phase II glucuronidation assays employing UDPGA as activating co-factor.
as §2, §3
solutions in DMSO were added to start the reaction. Final DMSO percentage in samples was kept at 1%. At fixed time points (t = 0, 15, 30, 45, 60 min), single aliquots of reaction mixture were withdrawn, processed with two vol. of ACN containing 100 nM UniPR126, centrifuged (16000 g, 10 min, 4 °C) and the supernatant was directly injected in the HPLC-ESI-MS/MS system. […]
as §4

[5] = n-octanol/buffer pH 7.4, cited from earlier work
[6] = Phase I metabolic stability in mouse liver microsomes (MLM) with NADPH-generating system; format: in vitro ADME; conditions: for in vitro half-life (t1/2), phase I metabolism / half-life at 1 µM: NADPH-generating system; for half-life at 1 µM: pH 7.4, MLM, read-out: in vitro half-life (t1/2), phase I metabolism
[7] = cited from earlier work
EphA2-Fc = EphA2-Fc (Mus musculus, UniProt Q03145); assay: Surface plasmon resonance (SPR) binding to sensorchip-immobilized EphA2-Fc
Chain of EphA2-Fc (Q03145 26-538): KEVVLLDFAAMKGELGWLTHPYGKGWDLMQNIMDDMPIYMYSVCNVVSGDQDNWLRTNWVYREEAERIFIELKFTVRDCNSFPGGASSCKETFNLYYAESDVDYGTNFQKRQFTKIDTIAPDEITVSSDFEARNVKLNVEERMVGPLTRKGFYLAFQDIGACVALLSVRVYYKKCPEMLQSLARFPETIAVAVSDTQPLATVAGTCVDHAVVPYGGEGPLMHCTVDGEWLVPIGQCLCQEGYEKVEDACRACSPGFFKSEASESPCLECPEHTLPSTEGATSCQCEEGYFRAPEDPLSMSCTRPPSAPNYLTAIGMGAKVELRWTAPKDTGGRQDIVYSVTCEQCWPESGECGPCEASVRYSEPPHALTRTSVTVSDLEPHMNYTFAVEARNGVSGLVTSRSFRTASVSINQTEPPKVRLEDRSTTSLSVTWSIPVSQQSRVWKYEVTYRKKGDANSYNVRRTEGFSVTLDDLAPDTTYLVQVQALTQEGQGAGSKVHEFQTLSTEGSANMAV
Protocol: SPR measurements were performed on a BIAcore X100 instrument (GE-Healthcare, Milwaukee, WI, USA), using research-grade CM4 carboxyl-methyl-dextran-coated sensorchips (GE-Healthcare). SPR was exploited to measure changes in refractive index caused by the binding of UniPR500 to surface-immobilized EphA2. […] Binding parameters were calculated by the non-linear curve fitting software package BIA evaluation 3.2 using a single site model with correction for mass transfer. The dissociation constant (Kd) was either derived from the dissociation rate (koff)/association rate (kon) ratio (kinetics) or by steady-state analysis (being fitted with the proper form of Scatchard’s equation for the plot of the bound RU at equilibrium vs. the ligand concentration in solution).

[8] = Phase II sulfonation stability in human liver S9 fraction (+PAPS); format: in vitro ADME; conditions: pH 7.4, human liver S9, 1 μM, read-out: in vitro t1/2, sulfonation
Protocol: as §1
In vitro half-life (t1/2) in MLM and MLS9 fraction was calculated from the slope (k, Equation (1)) of the linear regression model obtained by fitting the log percentage UniPR compound remaining vs. time. in vitro t1/2 = −0.693/k (1) […]
S.1 In vitro phase I liver metabolism in MLM […]
as §4

[9] = In vivo pharmacokinetics in mice after single oral dose, plasma levels by HPLC-MS/MS; conditions: 30 mg/kg p.o.; for AUC(0-t): non-compartmental analysis
Protocol: Male mice (breed: C57BL/6J) were supplied by Charles River Labs, Milan, Italy. Mice were submitted to 12 h light-dark cycles under standard temperature and humidity conditions, with free access to water and chow. All experimental procedures were carried out following the European Community Council Directive 2010/63/UE, Italian regulations (DL 26/2014), and the ethical committee guidelines for animal research. […] Blood aliquots were withdrawn by tail puncture into heparinized tubes, centrifuged to collect plasma (2000× g, 10 min, 4 °C), and stored at −80 °C until analysis by HPLC-ESI-MS/MS. Details on the employed bioanalytical method and HPLC-ESI-MS/MS analytical conditions are given in Section S.4 of the Supplementary Material.
Microsoft Excel 365 (Microsoft Corp., Redmond, WA, USA) was employed for data analysis. GraphPad Prism v. 6.01 (GraphPad Software Inc., La Jolla, CA, USA) was employed for plotting graphs. The freeware software PCModFit V.6.7 (Add-on for Microsoft Excel) was employed for AUC calculations by non-compartmental analysis (NCA). […]
Calibration standards (CS, concentration range: 1000-2 nmol/L) were prepared by spiking blank […]
= 1%). Specificity of the method was checked comparing HPLC-MS/MS chromatograms of blank […]
Within-run accuracy and precision were checked employing QC samples representative of the whole calibration range (HQC = 800 nmol/l; MQC = 400 nmol/l; LQC = 5 nmol/l) with n = 3 replicates at each QC concentration level. Between-run accuracy and precision were checked employing QC samples at n=3 concentration levels in n = 3 analytical runs over three days. The acceptance criteria for accuracy were to get back-calculated concentrations ± 15% of the nominal ones, except for the LLOQ, which had to be ± 20%. The acceptance criteria for precision, expressed as relative standard

[10] = 24 h incubation at 37 °C; cited from earlier work
[11] = cited from earlier work; remark: listed apart in the source
[12] = mice, cited from earlier work
[13] = male, C57BL/6J, mouse, plasma, po

In the case of `O=C(O)Cc1ccccc1Nc1c(Cl)cccc1Cl` [diclofenac], the “t1/2 of known phase I CYP substrates” value [1] is listed as about 6 min.

In the case of `C[C@H](CCC(=O)N[C@H](CC(=O)O)Cc1c[nH]c2ccccc12)[C@H]1CC[C@H]2[C@@H]3CCC4CC(=NO)CC[C@]4(C)[C@H]3CC[C@]12C` (stereo partly drawn) [UniPR500, N-(3-hydroxyimino-cholan-24-oyl)-L-β-homotryptophan], the “decrease of Log Doct,7.4 with respect to UniPR129” value [2] is reported as “approximately 0.7 log unit”, the “percentage remaining at t = 60 min, sulfonation” value [3] is reported as 81.0 ± 4.0% and the “percentage of intact compound at t = 60 min, glucuronidation” value [4] is reported as 79.5 ± 2.9%. For the same molecule, the “Log Doct,7.4” value ([5]; evaluated in a previous paper) was 4.23 ± 0.11 and 4.23, the “in vitro half-life (t1/2), phase I metabolism” value ([6]; MLM, 1 μM) was 60 min and the half-life at 1 µM ([6]; mouse, liver microsomes, 1 μM) was 60.4 min. For the same molecule, the kinetic solubility ([7]; previously measured) was 30.6 ± 2.6 µg/mL and 30 µg/mL, the “concentration at which saturation binding is reached” value (EphA2-Fc) was “around 25 μM” and the half-life at 1 µM [8] was 58.6 ± 6.1 min. For the same molecule, the “fold increase of AUC (0–6 h) with respect to UniPR129” value [9] was 43 fold, the Tmax [9, 13] was 30 min and the Cmax ([9]; male, C57BL/6J, mouse, plasma, po, mean ± S.E.M., n = 4, read-out: maximal plasma concentration (Cmax)) was 609 ± 102 nM. The concentration at 1 h ([9]; male, C57BL/6J, mouse, plasma, po, mean ± S.E.M., read-out: plasma concentration at 1 h post-dose) was 344 ± 29 nM, the concentration at 6 h ([9]; male, C57BL/6J, mouse, plasma, po, mean ± S.E.M., read-out: plasma concentration at 6 h post-dose) was 237 ± 24 nM and the AUC(0-t) [9, 13] was 1.75 µM·h.

In the case of `C[C@H](CCC(=O)N[C@H](CC(=O)O)Cc1c[nH]c2ccccc12)[C@H]1CC[C@H]2[C@@H]3CC[C@@H]4C[C@H](O)CC[C@]4(C)[C@H]3CC[C@]12C` [UniPR129, N-(3α-hydroxy-5β-cholan-24-oyl)-L-β-homotryptophan], the “percentage recovered in mouse plasma” value [10] is listed as 98.3 ± 9.5%, the “percentage remaining at t = 60 min, sulfonation” value [3] is listed as 86.2 ± 5.3% and the “plasma protein binding (%bound)” value [11] is listed as 98%. For the same molecule, the “percentage of intact compound at t = 60 min, glucuronidation” value [4] was 85.7 ± 2.7%, the “Log Doct,7.4” value [5] was 4.90 ± 0.15 and the “Log Doct,7.4” value ([5]; evaluated in a previous paper) was 4.90. The “plasma levels after oral administration” value ([12]; 30 mg/kg oral dose) was “low nanomolar range”, the Tmax ([12]; 30 mg/kg p.o.) was 60 min and the Cmax ([12]; 30 mg/kg p.o., read-out: Cmax in plasma) was 13.6 ± 1.2 nM. The “change in concentration in the absence of the NADPH-generating system” value ([6]; MLM control without NADPH-generating system) was “No decrease”, the “in vitro half-life (t1/2), phase I metabolism” value ([6]; MLM, 1 μM) was 17 min and the “classification of in vitro phase I intrinsic clearance” value ([6]; classification bands of ref 19) was “high clearance compound”. The half-life at 1 µM ([6]; mouse, liver microsomes, 1 μM) was 16.8 min, the microsomal CLint at 1 µM ([6]; mouse, liver microsomes, pH 7.4, MLM, 1 μM, estimate from t1/2, read-out: phase I intrinsic clearance (CL'int)) was 41.4 µL/min/mg and the kinetic solubility ([7]; PBS buffer pH 7.4) was 18.3 ± 2.4 µg/mL (≈ 31.7 µM). For the same molecule, the kinetic solubility ([7]; previously measured) was 18 µg/mL (≈ 31.2 µM), the half-life at 1 µM [8] was 61.1 ± 4.3 min and the AUC(0-t) [9, 13] was 0.0406 µM·h.
